This is an account of results in PMC6511404 (Biochemistry, 2019).

Experiment [1] addresses T1, E. coli enolase (Escherichia coli, UniProt P0A6P9). Kind of experiment: X-ray crystal structure, […] Å. The experiment is classed as binding.
Target sequence in this assay (P0A6P9 whole entry): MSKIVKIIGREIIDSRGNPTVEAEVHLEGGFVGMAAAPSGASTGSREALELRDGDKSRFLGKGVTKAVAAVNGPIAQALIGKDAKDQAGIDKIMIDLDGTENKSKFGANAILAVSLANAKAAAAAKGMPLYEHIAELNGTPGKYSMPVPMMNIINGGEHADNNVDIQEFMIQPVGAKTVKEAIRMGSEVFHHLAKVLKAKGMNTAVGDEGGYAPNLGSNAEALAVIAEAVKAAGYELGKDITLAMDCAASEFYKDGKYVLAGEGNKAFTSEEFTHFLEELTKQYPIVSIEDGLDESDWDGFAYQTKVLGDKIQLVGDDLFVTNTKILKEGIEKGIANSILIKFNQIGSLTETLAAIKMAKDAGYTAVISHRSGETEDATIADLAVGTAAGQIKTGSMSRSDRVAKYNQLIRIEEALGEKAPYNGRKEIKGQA
The target in experiment [2] is T1, E. coli enolase. Kind of experiment: enolase assay, % inhibition at […]. The conditions noted are these: read-out: % inhibition at 20 μM. The experiment is classed as biochemical.
Target sequence in this assay (P0A6P9 2-432): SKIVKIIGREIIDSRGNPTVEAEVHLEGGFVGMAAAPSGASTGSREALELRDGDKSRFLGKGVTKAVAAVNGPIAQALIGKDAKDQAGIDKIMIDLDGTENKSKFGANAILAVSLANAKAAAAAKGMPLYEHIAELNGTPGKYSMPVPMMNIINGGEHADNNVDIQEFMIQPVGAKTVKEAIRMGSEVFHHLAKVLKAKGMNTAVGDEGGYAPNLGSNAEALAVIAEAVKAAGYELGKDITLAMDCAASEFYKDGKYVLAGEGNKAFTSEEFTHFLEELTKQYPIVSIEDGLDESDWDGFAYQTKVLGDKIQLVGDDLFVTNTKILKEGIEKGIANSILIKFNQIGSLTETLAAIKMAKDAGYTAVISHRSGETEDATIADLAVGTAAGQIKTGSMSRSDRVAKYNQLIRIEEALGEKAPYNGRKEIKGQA

By inhibition is commonly meant how much of the control response was suppressed.

Molecules are shown by their SMILES.

`O=C(O)C(CO)OP(=O)(O)O` (centres unmarked) [2-PGA]: the “X-ray crystal structure, 1.8 Å” value in experiment [1] was “we observe a fully occupied active site with 2-PGA and two Mg-ions bound (PDB 6BFy)”.
As for `NCCOCCOCCNC(=O)Cc1ccc(Nc2nc(NCc3ccc(F)cc3)nc(NCC3CCCCC3)n2)cc1` [compound 41, ENOblock], the inhibition at 20 µM in experiment [2] stood at 41%.
